Source: PMC9572541, “Design, Synthesis and Biological Evaluation of Novel and Potent Protein Arginine Methyltransferases 5 Inhibitors for Cancer Therapy” (Molecules, 2022)
Like-named read-outs stand apart in the source and are kept apart here.

Key:
[1] = target: T1, PRMT5 (Homo sapiens, UniProt O14744); experiment: Cellular thermal shift assay (CETSA) in MV-4-11 cells; format: cell-based
T1 construct: The final concentrations of PRMT5 enzyme: 2.5 nm/L
Procedure: The cellular thermal shift assay and the isothermal dose response were run as previously described. Briefly, MV-4-11 cells were collected and centrifugated (4 min, 1000 rpm) and washed twice with PBS. Then the cells were divided three equal parts with seeding density of 1 × 10^6 cells/mL into 60 mm cell culture dish in three mL media. The cell suspension was incubated with DMSO and compounds for 18 h at 37 °C, 5% CO2, and 85% RH.
After incubation, cells were collected and washed twice with PBS. Then they divided the ten parts into transferred thin-walled PCR tubes (0.2 mL, Axygen, Union City, CA, USA) in 50μL PBS. Cells were subjected to 3 min of heat in 96-well thermal cycler (Eppendorf Mastercycler nexus GSX1, Düsseldorf, German) at temperatures of 37, 46, 49, 52, 55, 58, 61, 64, 67 and 70 °C. After heating, cells were left to cool for 3 min and then snap frozen in −80 °C ultra-low temperature freezer overnight. The next day, cells were subjected to 3 rapid freeze thaws with 15 s of vortexing after each thaw. […]
(B) The relative strength of PRMT5 signal on the Western blots was measured by densitometry. […] All data were analyzed using a Boltzmann sigmoidal fit. […]

[2] = target: T1, PRMT5; experiment: PRMT5 enzymatic activity inhibition assay (radioactive methylation, 3H-SAM to H4R3 peptide); format: biochemical
Procedure: The PRMT5 enzymatic activity assay was conducted by Chempartner Life science. The final concentrations of PRMT5 enzyme: 2.5 nm/L; ^3H-SAM: 0.3 μM/L; histone peptide (H4R3S1ac): 0.3 μM/L. The protocol of radioactive methylation assay was as follows: (1) Prepare 1× assay buffer (modified Tris Buffer). (2) Transfer compounds to assay plate using Echo in 100% DMSO. DMSO’s final fraction is 1%. (3) Prepare enzyme and ^3H-SAM Mix solution in 1× assay buffer. (4) Prepare substrate (peptide sequence Ac-[…]-K(Biotin)) solution in 1× assay buffer. (5) Transfer 15 μL of enzyme and ^3H-SAM solution to assay plate. (6) Incubate at room temperature for 60 min. (7) Add 10 μL of substrate solution to each well to start the reaction, and for low control transfer 10 μL of 1× assay buffer. (8) Incubate at room temperature for 120 min. (9) Add cold SAM in 1× assay buffer to make the stop mix. (10) Stop reaction with addition of 5 µL per well of stop solution. (11) Transfer 25 µL of volume per well to Flash plate from assay plate. (12) Incubate for 1 h minimum at room temperature.
(13) Read plate on Micro beta. (14) Data process—get the data in Excel to obtain inhibition values using Equation (1).Inhibitory rate% = (Max-Signal)/ (Max-Min) × 100(1)
Fit the data in XL-Fit to obtain IC50 values using Equation (2): Y = Bottom + (Top-Bottom)/(1 + (IC50/X) […]) Y is% inhibition and X is compound concentration(2)

[3] = Pharmacokinetic study in ICR mice; format: in vivo, mouse; conditions: for MRT last: read-out: MRT0-t; for MRT inf: read-out: MRT0-∞
Procedure: The pharmacokinetic properties were evaluated by PRECEDO. China. SPF ICR mice (18–20 g, 6–8 weeks, n = 3 per group) were used to carried out pharmacokinetics determinations. […] Colleting samples at different times after treatment. Plasma was obtained from the blood samples by centrifugation (6000 rpm for 3 min at 2–8 °C) and stored at −20 °C. The LC-MS/MS (Shimadzu, API 4000) method was used to determine the concentration of each animal at each time point.

[4] = test system: sDMA; experiment: Western blot of PRMT5 substrate sDMA in MV-4-11 cells; format: cell-based; conditions: 96 h, five-fold concentration gradient
Procedure: Compounds were administered at the expected concentration for the expected time in MV-4-11 cell lines. After being washed twice with PBS, cells were lysed with RIPA buffer, protease inhibitors (PMSF, MCE, New York, NY, USA), and phosphatase cocktails II (MCE, USA) for 1 h. The mixture was centrifuged at 12000 rpm for 15 min. The total protein content was quantified by BCA kit (Beyotime, Shanghai, China). Equivalent proteins were electrophoresed through 8~10% SDS-PAGE and then transferred on to polyvinylidene difluoride membranes (Millipore, Burlington, MA, USA). Subsequently, block the membrane for 1~2 h by 5% (w/v) skim milk (BD, Columbus, OH, USA). Proteins were detected using primary antibodies, followed by HRP-conjugated secondary antibodies, and visualization was performed using ECL (Vazyme Biotech, Beijing, China) as the HRP substrate. The target blots were detected with chemiluminescence system (Tanon, Shanghai, China). The densitometric analysis was performed with Image J software.
Western blot analysis of PRMT5 substrate sDMA, as indicated in MV-4-11 cancer cells treated with the indicated compounds for 96 h. β-Tubulin was used as a loading control. (B) The relative strength of sDMA signal on the Western blots was measured by densitometry. The data are shown as the mean ± SD of three independent experiments.

[5] = ICR, mouse, plasma, iv, 2 mg/kg, male mice, Table S1, mean ± SD
[6] = ICR, mouse, plasma, oral gavage, 10 mg/kg, male mice, Table S2, mean
[7] = male, ICR, mouse, plasma, iv, 2 mg/kg, ICR mouse, Table 4
[8] = male, ICR, mouse, plasma, iv, 2 mg/kg, male mice, Table S1, mean ± SD
[9] = male, ICR, mouse, plasma, po, 10 mg/kg, ICR mouse, Table 4
[10] = male, ICR, mouse, plasma, po, 10 mg/kg, oral gavage, male mice, Table S2, mean

T1 sequence (O14744 whole entry): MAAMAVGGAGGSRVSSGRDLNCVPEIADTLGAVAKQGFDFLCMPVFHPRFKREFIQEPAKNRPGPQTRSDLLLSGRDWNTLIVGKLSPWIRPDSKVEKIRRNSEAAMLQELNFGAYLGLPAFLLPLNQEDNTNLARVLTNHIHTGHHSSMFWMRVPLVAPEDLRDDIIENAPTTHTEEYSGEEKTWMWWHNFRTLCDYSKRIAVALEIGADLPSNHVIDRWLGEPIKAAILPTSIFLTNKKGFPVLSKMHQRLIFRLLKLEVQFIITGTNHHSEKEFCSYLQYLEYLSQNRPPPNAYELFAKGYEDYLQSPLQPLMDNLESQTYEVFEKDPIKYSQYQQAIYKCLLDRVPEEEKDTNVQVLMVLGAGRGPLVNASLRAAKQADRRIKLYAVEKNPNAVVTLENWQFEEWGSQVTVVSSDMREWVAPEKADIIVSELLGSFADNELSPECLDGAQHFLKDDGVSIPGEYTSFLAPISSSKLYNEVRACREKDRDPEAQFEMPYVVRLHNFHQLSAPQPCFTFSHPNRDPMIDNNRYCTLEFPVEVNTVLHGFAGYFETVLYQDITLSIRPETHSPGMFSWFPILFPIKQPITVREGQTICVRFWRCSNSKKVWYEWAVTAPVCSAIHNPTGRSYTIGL
T1 sequence (Q9BQA1 whole entry partner): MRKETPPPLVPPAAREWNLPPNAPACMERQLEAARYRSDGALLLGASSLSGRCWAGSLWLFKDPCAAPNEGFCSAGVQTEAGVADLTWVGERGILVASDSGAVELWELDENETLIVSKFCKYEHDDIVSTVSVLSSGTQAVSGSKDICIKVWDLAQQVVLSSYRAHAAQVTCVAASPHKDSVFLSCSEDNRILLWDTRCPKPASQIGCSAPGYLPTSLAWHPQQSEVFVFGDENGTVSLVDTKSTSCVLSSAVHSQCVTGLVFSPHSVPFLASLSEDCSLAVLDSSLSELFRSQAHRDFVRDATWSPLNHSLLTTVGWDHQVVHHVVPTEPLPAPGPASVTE

**Q.** Which “PRMT5 melting point increase compared to DMSO vehicle” value ([1]; 1 μM, 18 h) does the source give for `O=C(NC[C@H](O)CN1CCc2ccccc2C1)c1ccc2c(c1)c1c(n2CC2COC2)CCCC1` [Compound 20, (S)-N-(3-(3,4-dihydroisoquinolin-2(1H)-yl)-2-hydroxypropyl)-9-(oxetan-3-ylmethyl)-2,3,4,9-tetrahydro-1H-carbazole-6-carboxamide] here?
**A.** 7.2 °C

**Q.** And the “Inhibition of PRMT5 degradation at 58 °C” value ([1]; isothermal dose response, 58 °C)?
**A.** dose-dependent manner

**Q.** What about the IC50 [2] of the same molecule?
**A.** 4.2 ± 1.3 nM

**Q.** And the inhibition at 0.1 µM ([2]; 100 nM compound, read-out: Inhibition Rate% @100 nM)?
**A.** 83 ± 12%

**Q.** And the AUC(0-t) [3, 5]?
**A.** 1030 ± 68.5 ng·h/mL

**Q.** What about the C0 [3, 5] of the same molecule?
**A.** 1940 ± 330 ng/mL

**Q.** And the Tmax [3, 5]?
**A.** 4.8 min

**Q.** What about the half-life [3, 5] of the same molecule?
**A.** 29.4 ± 13.8 min

**Q.** What about the MRT last [3, 5] of the same molecule?
**A.** 26.4 ± 3 min

**Q.** And the MRT inf [3, 5]?
**A.** 0.45 ± 0.05 h

**Q.** And the AUC(0-t) [3, 6]?
**A.** 728 ng·h/mL

**Q.** What about the Tmax [3, 6] of the same molecule?
**A.** 15 min

**Q.** What about the bioavailability [3, 6] of the same molecule?
**A.** 14.5%

**Q.** And the half-life [3, 6]?
**A.** 364 min

**Q.** And the MRT last [3, 6]?
**A.** 73.2 min

**Q.** What about the MRT inf [3, 6] of the same molecule?
**A.** 1.91 h

**Q.** And the T1/2 ([3]; iv, 2 mg/kg, ICR mouse, Table 4)?
**A.** 0.49 h

**Q.** And the AUC(0-inf) [3, 7]?
**A.** 1030 ng·h/mL

**Q.** And the Cmax [3, 7]?
**A.** 1690 ng/mL

**Q.** And the clearance [3, 7]?
**A.** 32.4 mL/min/kg

**Q.** What about the Vd ([3]; male, ICR, mouse, plasma, iv, 2 mg/kg, iv, 2 mg/kg, ICR mouse, Table 4, read-out: Vss) of the same molecule?
**A.** 1.35 L/kg

**Q.** What about the Vd ([3]; male, ICR, mouse, plasma, iv, 2 mg/kg, iv, 2 mg/kg, male mice, Table S1, mean ± SD, read-out: Vz) of the same molecule?
**A.** 1.35 ± 0.556 L/kg

**Q.** What about the AUC(0-inf) [3, 8] of the same molecule?
**A.** 1030 ± 64.8 ng·h/mL

**Q.** What about the Cmax [3, 8] of the same molecule?
**A.** 1690 ± 133 ng/mL

**Q.** What about the clearance [3, 8] of the same molecule?
**A.** 32.4 mL/min/kg

**Q.** And the AUC(0-inf) [3, 9]?
**A.** 747 ng·h/mL

**Q.** And the Cmax [3, 9]?
**A.** 1270 ng/mL

**Q.** And the AUC(0-inf) [3, 10]?
**A.** 747 ng·h/mL

**Q.** And the Cmax [3, 10]?
**A.** 1270 ng/mL

**Q.** What about the bioavailability ([3]; male, plasma, po 10 mg/kg vs iv 2 mg/kg, ICR mouse, Table 4) of the same molecule?
**A.** 14.5%

**Q.** And the T1/2 ([3]; po, 10 mg/kg, ICR mouse, Table 4)?
**A.** 6.06 h

**Q.** And the sDMA protein expression [4]?
**A.** concentration-dependent decrease in sDMA
